The results in this text go back to patent EP0687469A2, “Anti-arrhythmic 3,7-diazabicyclo (3,3,1)nonane compounds” (Kali-Chemie Pharma GmbH, priority 1994, dated 1995).

Assay [1] relates to transienter Auswärtsstrom Ito. The experiment in a line: voltage clamp measurement of ion currents in isolated heart muscle cells (Ito). The settings on record: read-out: Blockade von Ionenströmen in % des Vorwerts transienter Auswärtsstrom Ito. It counts as cell-based, Ratten. The text has this:
(§1) Die Experimente wurden mit der Spannungsklemmmethode an isolierten Herzmuskelzellen von Meerschweinchen und Ratten durchgeführt. Hierbei wurden die Messungen des Ito an Zellen von Rattenherzen und die Messungen des Ik an Zellen von Meerschweinchenherzen durchgeführt. Die Herzen wurden mit proteolytischen Enzymen (Collagenase) perfundiert, um das Bindegewebe zu lockern. Anschließend wurde das Gewebe mechanisch zerkleinert und sodann erfolgte eine weitere Vereinzelung der Zellen in einer Nährlösung im Schüttelbad. Durch anschließendes Zentrifugieren wurde eine Suspension von Herzmuskelzellen erhalten. Bei der angewendeten Spannungsklemmethode zur Messung der Membranströme wird mittels einer Mikroelektrode (in Form einer mit Elektrolytlösung gefüllten Glaskapillare) das Zellinnere mit einem Verstärker verbunden, der die Membranspannung vorgeben kann. Fließt nun ein Ionenstrom durch die Membran (= Öffnung des Ionenkanalproteins) und verschiebt die Membranspannung, kompensiert der Verstärker diese Verschiebung durch einen Gegenstrom, d. h. die Spannung ist sozusagen festgeklemmt. Der gemessene Gegenstrom entspricht in seinem zeitlichen Verlauf dem physiologischen Ionenstrom mit umgekehrtem Vorzeichen. Die Aktivierung der verschiedenen Ionenströme in der Zellmembran hängt charakteristisch von Spannung und Zeit ab. […]

The test system of assay [2] is verz.gleichr. Auswärtsstrom Ik. The experiment in a line: voltage clamp measurement of ion currents in isolated heart muscle cells (Ik). It counts as cell-based, Meerschweinchen. The settings on record: read-out: Blockade von Ionenströmen in % des Vorwerts verz.gleichr. Auswärtsstrom Ik.
Source text: as §1

Consider `CC(C)CN1CC2CN(C(C)C)CC(C1)C21CCCCC1` [Bertosamil, N-Isobutyl-N'-isopropyl-9,9-pentamethylen-3,7-diazabicyclo[3,3,1]nonan], for which the inhibition at 1 µM in assay [1] worked out at 38%; in assay [2], 13%.
